Each structure is given as a SMILES string.

Assay [1] concerns the target Acetylcholinesterase (Electrophorus electricus) (UniProt O42275). In words: Inhibition of Electrophorus electricus AChE at 50 uM using acetylthiocholine iodide as substrate measured after 10 mins by Ellman's method relative to control.
In the next assay the target is Acetylcholinesterase (Electrophorus electricus, UniProt O42275). In words: Inhibition of Electrophorus electricus AChE using acetylthiocholine iodide as substrate measured during 6 mins by Ellman's method.
Acetylcholinesterase, sequence (O42275 whole entry): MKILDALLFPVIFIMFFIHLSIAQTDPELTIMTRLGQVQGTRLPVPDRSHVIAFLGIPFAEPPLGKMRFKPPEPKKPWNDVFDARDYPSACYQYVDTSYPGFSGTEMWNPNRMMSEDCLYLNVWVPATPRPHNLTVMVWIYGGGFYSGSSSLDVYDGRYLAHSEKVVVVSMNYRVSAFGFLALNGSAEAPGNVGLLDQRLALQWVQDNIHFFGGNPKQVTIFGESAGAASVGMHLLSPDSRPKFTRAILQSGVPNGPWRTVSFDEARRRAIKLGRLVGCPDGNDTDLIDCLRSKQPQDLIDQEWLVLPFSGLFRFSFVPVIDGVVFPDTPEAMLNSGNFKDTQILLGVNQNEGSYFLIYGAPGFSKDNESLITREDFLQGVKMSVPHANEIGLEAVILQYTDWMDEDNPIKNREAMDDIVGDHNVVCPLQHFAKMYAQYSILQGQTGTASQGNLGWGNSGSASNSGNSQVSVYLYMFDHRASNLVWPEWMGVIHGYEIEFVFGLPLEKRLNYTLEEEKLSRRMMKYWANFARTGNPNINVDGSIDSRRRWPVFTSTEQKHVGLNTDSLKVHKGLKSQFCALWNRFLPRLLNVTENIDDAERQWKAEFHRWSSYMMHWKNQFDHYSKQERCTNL

Acetylcholinesterase (Electrophorus electricus), sequence (O42275 24-633 limits assumed): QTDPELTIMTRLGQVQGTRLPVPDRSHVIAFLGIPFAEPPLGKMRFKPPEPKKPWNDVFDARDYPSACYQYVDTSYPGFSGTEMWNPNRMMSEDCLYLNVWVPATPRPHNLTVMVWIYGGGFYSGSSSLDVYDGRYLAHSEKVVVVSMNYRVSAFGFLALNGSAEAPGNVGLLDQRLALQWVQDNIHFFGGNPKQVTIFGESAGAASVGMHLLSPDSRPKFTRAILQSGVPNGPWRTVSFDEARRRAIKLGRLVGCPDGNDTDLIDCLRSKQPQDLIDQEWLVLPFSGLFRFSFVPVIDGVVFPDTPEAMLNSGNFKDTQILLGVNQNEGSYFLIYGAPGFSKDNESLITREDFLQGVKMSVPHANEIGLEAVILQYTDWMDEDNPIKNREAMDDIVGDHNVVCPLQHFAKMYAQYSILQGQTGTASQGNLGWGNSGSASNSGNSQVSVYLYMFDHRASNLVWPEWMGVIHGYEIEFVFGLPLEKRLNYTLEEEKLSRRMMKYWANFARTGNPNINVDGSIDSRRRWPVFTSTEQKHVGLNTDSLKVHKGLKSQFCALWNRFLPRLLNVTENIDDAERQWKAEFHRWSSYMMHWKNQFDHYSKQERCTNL

Turning to `CNCCc1c[nH]c2ccccc12`, in assay [1], the inhibition was determined as 49.8%.
In assay [1], `CN1CCC2(O)c3ccccc3NC12` (centres undefined) registered an inhibition of 53.7%.
For the compound `C=C[C@H]1CO[C@@H]2C[C@H]1C(=O)c1c3[nH]c4ccccc4c3cc[n+]12`, the midpoint of inhibition against Acetylcholinesterase, the IC50, lay at 3.4 µM.
On the same count and under the same terms, with `C=C[C@H]1CO[C@@H]2C[C@H]1Cc1c3[nH]c4ccccc4c3cc[n+]12` the figure was 10 µM.

(Values after ChEMBL document CHEMBL4130547, “Targeted Isolation of Monoterpene Indole Alkaloids from Palicourea sessilis” (J Nat Prod, 2017).)
